In patent US10479780B2, “Aminopyrazole derivatives” (Chugai Seiyaku Kabushiki Kaisha, priority 2015, dated 2019):
Where two headings read alike, the source gives them in different places.

Experiments:
Format in all cases: biochemical
human Yes1 enzyme = target: T1, human Yes1 enzyme (Homo sapiens, UniProt P07947); experiment: Yes1 enzyme inhibitory activity (time-resolved fluorometry, biotinylated peptide phosphorylation); conditions: read-out: YES_IC50
T1 construct: made in house
Method in brief: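 Inhibition was expressed against a compound-free control to give IC50, using TR-FRET read-out (Eu-cryptate anti-pTyr antibody, streptavidin-XL665).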

human Lck enzyme = target: T2, human Lck enzyme (Homo sapiens, UniProt P06239); experiment: Lck enzyme inhibitory activity (time-resolved fluorometry, biotinylated peptide phosphorylation); conditions: read-out: LCK_IC50
T2 construct: purchased Carna Biosciences, Inc. 08-170
Method in brief: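 Readout pairs a europium cryptate-labelled anti-phosphotyrosine antibody with XL665-streptavidin, measured by time-resolved fluorescence. IC50 derived from percent inhibition against untreated controls.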

human Src enzyme = target: T3, human Src enzyme (Homo sapiens, UniProt P12931); experiment: Src enzyme inhibitory activity (time-resolved fluorometry, biotinylated peptide phosphorylation); conditions: read-out: SRC_IC50
T3 construct: purchased Carna Biosciences, Inc. 08-173
Method in brief: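 Compounds were tested for blocking tyrosine phosphorylation of a biotinylated peptide substrate by recombinant human Src. Phosphorylated product was quantified by time-resolved fluorometry using europium cryptate and XL665 conjugates, and IC50 was calculated against the compound-free control.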

[1] = biotinylated peptide phosphorylation

T1 sequence (P07947 whole entry): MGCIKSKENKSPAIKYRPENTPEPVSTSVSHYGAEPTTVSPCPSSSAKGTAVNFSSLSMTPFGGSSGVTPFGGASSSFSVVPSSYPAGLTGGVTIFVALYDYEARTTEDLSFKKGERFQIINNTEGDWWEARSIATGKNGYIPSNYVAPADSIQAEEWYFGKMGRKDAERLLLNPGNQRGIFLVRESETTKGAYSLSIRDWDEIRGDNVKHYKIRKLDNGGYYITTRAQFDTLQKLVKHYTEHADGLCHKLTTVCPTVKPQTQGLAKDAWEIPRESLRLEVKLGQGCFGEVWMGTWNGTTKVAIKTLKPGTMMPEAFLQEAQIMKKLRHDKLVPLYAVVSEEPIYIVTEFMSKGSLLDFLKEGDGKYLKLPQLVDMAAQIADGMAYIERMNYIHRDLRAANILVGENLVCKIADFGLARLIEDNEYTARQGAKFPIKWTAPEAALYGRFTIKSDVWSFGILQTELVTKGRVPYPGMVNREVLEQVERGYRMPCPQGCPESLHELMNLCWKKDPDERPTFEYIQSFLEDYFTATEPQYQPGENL
T3 sequence (P12931 whole entry): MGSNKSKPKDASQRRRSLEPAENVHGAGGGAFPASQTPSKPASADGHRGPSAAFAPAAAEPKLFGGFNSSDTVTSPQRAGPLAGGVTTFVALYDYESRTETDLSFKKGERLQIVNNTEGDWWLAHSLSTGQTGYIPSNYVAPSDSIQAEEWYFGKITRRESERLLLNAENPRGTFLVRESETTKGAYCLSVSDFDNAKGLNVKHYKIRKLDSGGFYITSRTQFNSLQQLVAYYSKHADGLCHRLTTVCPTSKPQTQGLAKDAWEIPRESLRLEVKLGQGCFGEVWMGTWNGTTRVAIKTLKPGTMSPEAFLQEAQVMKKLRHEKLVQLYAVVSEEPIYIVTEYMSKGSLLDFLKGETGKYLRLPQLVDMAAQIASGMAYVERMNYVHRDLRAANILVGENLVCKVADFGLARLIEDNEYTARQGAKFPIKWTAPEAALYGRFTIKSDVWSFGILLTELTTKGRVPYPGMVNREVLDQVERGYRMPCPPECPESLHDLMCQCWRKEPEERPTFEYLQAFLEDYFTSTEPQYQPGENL
T2 sequence (P06239 whole entry): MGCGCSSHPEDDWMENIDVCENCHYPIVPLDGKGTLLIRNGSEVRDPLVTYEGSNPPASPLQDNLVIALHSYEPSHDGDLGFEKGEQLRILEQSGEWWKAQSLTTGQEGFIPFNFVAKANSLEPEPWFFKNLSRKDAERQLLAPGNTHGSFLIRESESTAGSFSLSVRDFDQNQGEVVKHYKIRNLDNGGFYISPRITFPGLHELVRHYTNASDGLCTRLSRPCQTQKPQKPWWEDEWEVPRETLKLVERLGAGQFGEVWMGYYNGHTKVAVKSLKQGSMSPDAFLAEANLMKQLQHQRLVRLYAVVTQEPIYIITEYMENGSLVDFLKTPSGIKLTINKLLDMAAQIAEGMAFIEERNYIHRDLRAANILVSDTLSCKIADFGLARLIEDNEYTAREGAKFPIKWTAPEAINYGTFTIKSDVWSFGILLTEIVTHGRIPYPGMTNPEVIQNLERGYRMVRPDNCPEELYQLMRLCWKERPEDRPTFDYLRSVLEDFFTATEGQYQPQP

| SMILES | IC50 (human Yes1 enzyme) | IC50 (human Lck enzyme) | IC50 (human Src enzyme) | IC50 (human Yes1 enzyme; [1]) | IC50 (human Lck enzyme; [1]) | IC50 (human Src enzyme; [1]) |
| --- | --- | --- | --- | --- | --- | --- |
| Cc1cc(Oc2ccccc2F)ccc1-n1ncc(C(=O)c2cc3cc(OC4CCN(C(C)C)CC4)c(Br)cc3[nH]2)c1N [Example 5-1-146, [5-amino-1-[4-(2-fluorophenoxy)-2-methylphenyl]pyrazol-4-yl]-[6-bromo-5-(1-propan-2-ylpiperidin-4-yl)oxy-1H-indol-2-yl] methanone] | 0.27 nM | 5.3 nM | 2.2 nM |  |  |  |
| Cc1cc(Oc2ccccc2F)ccc1-n1ncc(C(=O)c2cc3cc(OCC(F)F)c(N4C(=O)[C@@H]5C[C@H](NC(=O)OCc6ccco6)CN5C4=O)cc3[nH]2)c1N [Example 5-1-278, furan-2-ylmethyl ((6S,7aS)-2-(2-(5-amino-1-(4-(2-fluorophenoxy)-2-methylphenyl)-1H-pyrazole-4-carbonyl)-5-(2,2-difluoroethoxy)-1H-indol-6-yl)-1,3-dioxohexahydro-1H-pyrrolo[1,2-c]imidazol-6-yl)carbamate] | 1.2 nM | 8.7 nM | 23 nM |  |  |  |
| COc1cc2cc(C(=O)c3cnn(-c4cnc(Oc5c(F)cccc5F)cc4C)c3N)[nH]c2cc1NS(=O)(=O)CC(=O)N1CCCC1 [Example 4-10-017, N-[2-[5-amino-1-[6-(2,6-difluorophenoxy)-4-methylpyridin-3-yl]pyrazole-4-carbonyl]-5-methoxy-1H-indol-6-yl]-2-oxo-2-pyrrolidin-1-ylethanesulfonamide] |  |  |  | 0.93 nM | 11 nM | 32 nM |
| Cc1cc2cc(C(=O)c3cnn(-c4ccc(Oc5ccccc5F)cc4C)c3N)[nH]c2cc1NS(=O)(=O)c1cccc(Cl)n1 [Example 5-1-525, N-[2-[5-amino-1-[4-(2-fluorophenoxy)-2-methylphenyl]pyrazole-4-carbonyl]-5-methyl-1H-indol-6-yl]-6-chloropyridine-2-sulfonamide] |  |  |  | 3.1 nM | 72 nM | 400 nM |
| Cc1cc2cc(C(=O)c3cnn(-c4cnc(Oc5c(F)cccc5F)cc4C)c3N)[nH]c2cc1N1C(=O)NC2(CCN(Cc3ccccc3)C2)C1=O (stereo not drawn) [Example 5-1-363, 3-[2-[5-amino-1-[6-(2,6-difluorophenoxy)-4-methylpyridin-3-yl]pyrazole-4-carbonyl]-5-methyl-1H-indol-6-yl]-7-benzyl-1,3,7-triazaspiro[4.4]nonane-2,4-dione] | 11 nM | 31 nM | 260 nM |  |  |  |
| Cc1cc(-n2ncc(C(=O)c3cc4cc(N5CCOCC5)c(N5CCOC5=O)cc4[nH]3)c2N)ccc1Oc1ccccc1F [Example 5-1-160, 3-[2-[5-amino-1-[4-(2-fluorophenoxy)-3-methylphenyl]pyrazole-4-carbonyl]-5-morpholin-4-yl-1H-indol-6-yl]-1,3-oxazolidin-2-one] | 0.71 nM | 33 nM | 230 nM |  |  |  |
| Cc1cc(Oc2ccccc2F)ccc1-n1ncc(C(=O)c2cc3cc(F)c(N4CCCC4=O)cc3[nH]2)c1N [Example 5-1-103, 1-[2-[5-amino-1-[4-(2-fluorophenoxy)-2-methylphenyl]pyrazole-4-carbonyl]-5-fluoro-1H-indol-6-yl]pyrrolidin-2-one] | 0.38 nM | 1.1 nM | 5.2 nM |  |  |  |
| Cc1cc2cc(C(=O)c3cnn(-c4cc(C)c(Oc5ccccc5F)cc4C)c3N)[nH]c2cc1NS(C)(=O)=O [Example 5-1-200, N-[2-[5-amino-1-[4-(2-fluorophenoxy)-2,5-dimethylphenyl]pyrazole-4-carbonyl]-5-methyl-1H-indol-6-yl]methanesulfonamide] | 52 nM | 270 nM | 920 nM |  |  |  |
| Cc1cc(Oc2c(F)cccc2F)ncc1-n1ncc(C(=O)c2cc3cc(OC4CCN(C5CCCC5)CC4)c(Br)cc3[nH]2)c1N [Example 5-1-223, [5-amino-1-[6-(2,6-difluorophenoxy)-4-methylpyridin-3-yl]pyrazol-4-yl]-[6-bromo-5-(1-cyclopentylpiperidin-4-yl)oxy-1H-indol-2-yl] methanone] | 1.5 nM | 7.2 nM | 7.4 nM |  |  |  |
| CC(C)N1CCC(c2cc3cc(C(=O)c4cnn(-c5ccc(Oc6cccc(F)c6)cc5)c4N)[nH]c3cc2F)CC1 [Example 4-2-006, [5-amino-1-[4-(3-fluorophenoxy)phenyl]pyrazol-4-yl]-[6-fluoro-5-(1-propan-2-ylpiperidin-4-yl)-1H-indol-2-yl]methanone] |  |  |  | 1.3 nM | 3.3 nM | 12 nM |
| Cc1cc(Oc2c(F)cccc2F)ncc1-n1ncc(C(=O)c2cc3cc(OCC(F)F)c(N4CCCC4=O)cc3[nH]2)c1N [Example 4-21-001, 1-{2-{5-amino-1-[6-(2,6-difluorophenoxy)-4-methylpyridin-3-yl]pyrazole-4-carbonyl}-5-(2,2-difluoroethoxy)-1H-indol-6-yl}pyrrolidin-2-one] |  |  |  | 3.7 nM | 6.2 nM | 13 nM |
| Cc1cc(Oc2ccccc2F)ccc1-n1ncc(C(=O)c2cc3cc(OCCN4CC5CC(C4)N5S(C)(=O)=O)c(NS(C)(=O)=O)cc3[nH]2)c1N [Example 4-24-037] |  |  |  | 0.67 nM | 3.8 nM | 24 nM |
| Cc1cc(Oc2c(F)cccc2F)ncc1-n1ncc(C(=O)c2cc3cc(OCC(F)F)c(NS(=O)(=O)c4cccc(F)n4)cc3[nH]2)c1N [Example 5-1-570, N-[2-[5-amino-1-[6-(2,6-difluorophenoxy)-4-methylpyridin-3-yl]pyrazole-4-carbonyl]-5-(2,2-difluoroethoxy)-1H-indol-6-yl]-6-fluoropyridine-2-sulfonamide] |  |  |  | 2.1 nM | 9.6 nM | 410 nM |
| COc1cccc(S(=O)(=O)Nc2cc3[nH]c(C(=O)c4cnn(-c5cnc(Oc6c(F)cccc6F)cc5C)c4N)cc3cc2OCC(F)F)c1 [Example 5-1-327, N-[2-[5-amino-1-[6-(2,6-difluorophenoxy)-4-methylpyridin-3-yl]pyrazole-4-carbonyl]-5-(2,2-difluoroethoxy)-1H-indol-6-yl]-3-methoxybenzenesulfonamide] | 7.3 nM | 270 nM | 920 nM |  |  |  |
| Cc1cc(-n2ncc(C(=O)c3cc4cc(OC5CCN(C(C)C)CC5)c(-c5cncnc5)cc4[nH]3)c2N)ccc1Oc1ccccc1F [Example 5-1-240, [5-amino-1-[4-(2-fluorophenoxy)-3-methylphenyl]pyrazol-4-yl]-[5-(1-propan-2-ylpiperidin-4-yl)oxy-6-pyrimidin-5-yl-1H-indol-2-yl]methanone] | 2 nM | 19 nM | 75 nM |  |  |  |
| Cc1cc(-n2ncc(C(=O)c3cc4cc(OC5CCN(C(C)C)CC5)c(C5CCOCC5)cc4[nH]3)c2N)ccc1Oc1ccccc1F [Example 5-1-247, (5-amino-1-(4-(2-fluorophenoxy)-3-methylphenyl)-1H-pyrazol-4-yl)(5-((1-isopropylpiperidin-4-yl)oxy)-6-(tetrahydro-2H-pyran-4-yl)-1H-indol-2-yl)methanone] | 2.1 nM | 34 nM | 120 nM |  |  |  |
| CC(=O)N1CCC(c2cc3[nH]c(C(=O)c4cnn(-c5ccc(Oc6ccccc6F)cc5C)c4N)cc3cc2OCC(F)F)CC1 [Example 4-17-014, 1-[4-[2-[5-amino-1-[4-(2-fluorophenoxy)-2-methylphenyl]pyrazole-4-carbonyl]-5-(2,2-difluoroethoxy)-1H-indol-6-yl]piperidin-1-yl]ethanone] |  |  |  | 4.5 nM | 13 nM | 27 nM |
